Assay results: patent US8481503B2, “Combination cancer therapy with an AKT inhibitor and other anticancer agents” (Merck Sharp & Dohme Corp., priority 2009, dated 2013)

Key:
Format in all cases: cell-based, Human
NCI-H460 NSCLC cell line = test: in vitro proliferation/viability, combination Compound A and standard of care agents (CellTiter-Glo, CalcuSyn CI); conditions: combination partner SOC with Compound A, simultaneous 72 h
Protocol: (§1) A 2- or 3-fold serial dilution series of concentrated Compound A/carboplatin combinations was prepared, in which the concentration ratio of the two drugs was fixed and equal to […] ratio of Compound A and carboplatin determined in single agent titrations described above. Corresponding single agent dilution series of concentrated Compound A and carboplatin were also prepared. The three dilution series were then tested in the proliferation/viability assay as described above. The data were analyzed using CalcuSyn software (BIOSOFT) that calculates combination index (CI) for each combination of Compound A/carboplatin as described below. Combination index values were generated by inserting the interpolated values into the mutually exclusive equation derived by Chou and Talalay.
(§2) Synergistic interaction between compounds was analyzed by the median effect method described by Chou and Talalay (Adv. Enzyme Regul. 22: 27-55, 1984). Studies were first conducted to determine the potency of Compound A or combination partner (Drug-A) as single agent in inhibiting proliferation/viability of tumor cells. The IC50 values of each single agent were determined by fitting data to four parameter dose-response equation. Percent inhibition of cell growth was calculated relative to vehicle treated control wells. […] Y starts at Bottom and goes to Top with a sigmoid shape.
(§3) The fixed ratio experimental design was then used to compare of various Compound A/Drug-A combinations and corresponding single agent treatments.
(§4) D1 and D2 are known from the composition of the combination and D1c and D2c can be calculated from the equation; Dc=Dm*[fa/(1−fa)]^1/m where Dm is the concentration of drugs giving 50% effect, fa is the fraction affected, and m is the slope from the median effect plot of log (fa/fu) where fu is the fraction unaffected versus log (D). A CI equal to 1 signifies an additive effect, less than 1 a synergistic effect, and greater than 1 an antagonistic effect.
Human non-small cell lung cancer cell (NCI-H460) was obtained from the American Type Culture Collection (ATCC). NCI-H460 cells were cultured in RPMI-1640 containing heat-inactivated 10% fetal bovine serum (FBS) in a humidified incubator at 37° C. in 5% CO2.
(§5) NCI-H460 NSCLC cell line was seeded at 2,000 cells/well in RPMI 1640 supplemented with 10% heat-inactivated FBS in 96 well tissue culture plates (CORNING #3340) and incubated at 37° C. in 5% CO2 overnight. On the next day Compound A, doxorubicin or the combination of the two agents was added as a 2-fold dilution series in RPMI containing 1% DMSO. The final DMSO concentration in each assay was 0.1%. The plates were then incubated at 37° C. in 5% CO2 for 72 hours. The number of viable cells was measured using CellTiter-Glo cell viability assay (Promega #G7571). The luminiscence signal was read using a ARVO-SX multimode plate reader (Perkin-Elmer). Combination index was determined by the same method as described in section T1.3.
as §5, with “camptothecin” for “doxorubicin”
NCI-H460 NSCLC cell line was seeded at 2,000 cells/well in RPMI 1640 supplemented with 10% heat-inactivated FBS in 96 well tissue culture plates (CORNING #3340) and incubated at 37° C. in 5% CO2 overnight.

Caspase-3/7 [1] = test: Caspase-3/7 assay (Caspase-Glo 3/7) in A2780 cells, Compound A plus cytotoxic agents
Protocol: A2780 ovarian cancer cell line was cultured at 37° C. in complete medium (RPMI-1640 supplemented with 10% heat-inactivated FBS) and plated at 2,000 cells/well in 96 well assay plates (CORNING #3340). […] Then, Compound A and cytotoxic agents were added to each well and incubated at 37° C. in 5% CO2 for 24 hours. […] Medium was removed and 50 ul of Caspase-Glo reagents were added to wells. […] Relative Caspase-3/7 induction level was then calculated as the fold increase compared with the level of caspase-3/7 induction in the non-treatment group.

[2] = tested on: A2780 ovarian cancer cell line; test: in vitro proliferation/viability, combination Compound A and standard of care agents (CellTiter-Glo, CalcuSyn CI); conditions: combination partner SOC with Compound A, simultaneous 72 h
Protocol: as §1, §2, §3, §4
Human ovarian cancer cell (A2780) was obtained from the European Collection of Cell Culture (ECACC). A2780 cells were cultured in RPMI-1640 containing heat-inactivated 10% fetal bovine serum (FBS) in a humidified incubator at 37° C. in 5% CO2.
as §5, with “The cells were” for “NCI-H460 NSCLC cell line was”
as §5, with “The cells were” for “NCI-H460 NSCLC cell line was”, “camptothecin” for “doxorubicin”
The cells were seeded at 2,000 cells/well in RPMI 1640 supplemented with 10% heat-inactivated FBS in 96 well tissue culture plates (CORNING #3340) and incubated at 37° C. in 5% CO2 overnight. On the next day Compound A, 5-FU or the combination of the two agents was added as a 2-fold dilution series in RPMI containing 1% DMSO.

Caspase-3/7 [3] = test: Caspase-3/7 assay (Caspase-Glo 3/7) in NCI-H460 cells, Compound A plus cytotoxic agents
[4] = combination partner SOC with Compound A 62.5 nM
[5] = combination partner SOC with Compound A 250 nM
[6] = combination partner SOC with Compound A 1000 nM

## CC[C@@]1(O)C(=O)OCc2c1cc1n(c2=O)Cc2cc3ccccc3nc2-1 [Camptothecin, 4-ethyl-4-hydroxy-1H-pyrano[3′,4′:6,7]indolizino[1,2-b]quinoline-3,14-(4H,12H)-dione]
NCI-H460 NSCLC cell line
  Combination index for above fractional inhibition, ED50: 0.39
  Combination index for above fractional inhibition, ED75: 0.39
  Combination index for above fractional inhibition, ED90: 0.63
Caspase-3/7 [1]; [4]
  Caspase-3/7 fold induction at 24 h (fold of DMSO control): 1.9 fold of DMSO control
Caspase-3/7 [1]; [5]
  Caspase-3/7 fold induction at 24 h (fold of DMSO control): 2.6 fold of DMSO control
Caspase-3/7 [1]; [6]
  Caspase-3/7 fold induction at 24 h (fold of DMSO control): 4.0 fold of DMSO control
[2]
  Combination index for above fractional inhibition, ED50: 0.56
  Combination index for above fractional inhibition, ED75: 0.40
  Combination index for above fractional inhibition, ED90: 0.29
Caspase-3/7 [3]; [4]
  Caspase-3/7 fold induction at 24 h (fold of DMSO control): 1.2 fold of DMSO control
Caspase-3/7 [3]; [5]
  Caspase-3/7 fold induction at 24 h (fold of DMSO control): 1.4 fold of DMSO control
Caspase-3/7 [3]; [6]
  Caspase-3/7 fold induction at 24 h (fold of DMSO control): 1.7 fold of DMSO control

## O=c1[nH]cc(F)c(=O)[nH]1 [Compound 5-FU, 5-fluorouracil]
NCI-H460 NSCLC cell line
  Combination index for above fractional inhibition, ED50: 0.35
  Combination index for above fractional inhibition, ED75: 0.30
  Combination index for above fractional inhibition, ED90: 0.37
Caspase-3/7 [1]; [4]
  Caspase-3/7 fold induction at 24 h (fold of DMSO control): 1.5 fold of DMSO control
Caspase-3/7 [1]; [5]
  Caspase-3/7 fold induction at 24 h (fold of DMSO control): 1.7 fold of DMSO control
Caspase-3/7 [1]; [6]
  Caspase-3/7 fold induction at 24 h (fold of DMSO control): 2.5 fold of DMSO control
[2]
  Combination index for above fractional inhibition, ED50: 0.68
  Combination index for above fractional inhibition, ED75: 0.54
  Combination index for above fractional inhibition, ED90: 0.53
Caspase-3/7 [3]; [4]
  Caspase-3/7 fold induction at 24 h (fold of DMSO control): 1.2 fold of DMSO control
Caspase-3/7 [3]; [5]
  Caspase-3/7 fold induction at 24 h (fold of DMSO control): 1.3 fold of DMSO control
Caspase-3/7 [3]; [6]
  Caspase-3/7 fold induction at 24 h (fold of DMSO control): 1.4 fold of DMSO control

## COc1cccc2c1C(=O)c1c(O)c3c(c(O)c1C2=O)C[C@@](O)(C(=O)CO)C[C@@H]3O[C@H]1C[C@H](N)[C@H](O)[C@H](C)O1 [Doxorubicin, (2S,4S)-4-(3-amino-2,3,6-trideoxy-α-L-lyxo-hexopyranosyloxy)-2,5,12-trihydroxy-2-hydroxyacetyl-7-methoxy-1,2,3,4-tetrahydrotetracene-6,11-dione]
NCI-H460 NSCLC cell line
  Combination index for above fractional inhibition, ED50: 0.27
  Combination index for above fractional inhibition, ED75: 0.18
  Combination index for above fractional inhibition, ED90: 0.17
Caspase-3/7 [1]; [4]
  Caspase-3/7 fold induction at 24 h (fold of DMSO control): 1.6 fold of DMSO control
Caspase-3/7 [1]; [5]
  Caspase-3/7 fold induction at 24 h (fold of DMSO control): 2.8 fold of DMSO control
Caspase-3/7 [1]; [6]
  Caspase-3/7 fold induction at 24 h (fold of DMSO control): 4.1 fold of DMSO control
[2]
  Combination index for above fractional inhibition, ED50: 0.70
  Combination index for above fractional inhibition, ED75: 0.43
  Combination index for above fractional inhibition, ED90: 0.27
Caspase-3/7 [3]; [4]
  Caspase-3/7 fold induction at 24 h (fold of DMSO control): 1.3 fold of DMSO control
Caspase-3/7 [3]; [5]
  Caspase-3/7 fold induction at 24 h (fold of DMSO control): 1.7 fold of DMSO control
Caspase-3/7 [3]; [6]
  Caspase-3/7 fold induction at 24 h (fold of DMSO control): 2.8 fold of DMSO control
